From patent publication US12551500B2, “C6′-substituted locked nucleic acid-modified cap analog and use thereof” (Hangzhou Tianlong Pharmaceutical Co., Ltd., priority 2024, dated 2026)

What was measured:
[1] = Characterization of lipid nanoparticles encapsulating Fluc-mRNA; assay type: physicochemical; settings: for Particle size: LNP (YK-009/DSPC/cholesterol/DMG-PEG2000) encapsulating Fluc-mRNA transcribed using the cap analog; for PDI: LNP encapsulating Fluc-mRNA transcribed using the cap analog; for EE: encapsulation efficiency of LNP encapsulating Fluc-mRNA transcribed using the cap analog
Experimental: Cationic lipid YK-009 (Beijing Youcare Kechuang Pharmaceutical Technology Co., Ltd.), DSPC (AVT (Shanghai) Pharmaceutical Technology Co., Ltd.), cholesterol (AVT (Shanghai) Pharmaceutical Technology Co., Ltd.), and DMG-PEG2000 were dissolved in ethanol at a molar ratio of 49:10:39.5:1.5, and the mRNA was diluted in 50 mM citrate buffer (pH=4). The ethanol lipid solution was mixed with the Fluc-mRNA aqueous solution prepared from different cap structures at a volume ratio of 1:3 using a microfluidic device at a flow rate of 10 mL/min to prepare LNPs at a weight ratio of total lipid to mRNA of approximately 15:1. The resulting liposomes were diluted to 10-fold volume with PBS, and then ultrafiltered with a 300 KDa ultrafiltration tube to remove ethanol. The volume was then fixed to a certain volume with PBS. Finally, the LNPs were filtered through a 0.2 μm sterile filter to obtain an LNP preparation encapsulating Fluc-mRNA using YK-009/DSPC/cholesterol/DMG-PEG2000 (at a molar ratio of 49:10:39.5:1.5).
The particle size and polydispersity index (PDI) were determined by dynamic light scattering using a Malvern laser particle size analyzer. 10 μL of the liposome solution was taken, diluted to 1 mL with RNase-free deionized water, and added to a sample pool. Each sample was measured in triplicate. The measurement conditions were: a scattering angle of 90° and a temperature of 25° C. The encapsulation efficiency of LNPs was determined using the Quant-iT RiboGreen RNA Quantification Kit (Thermo Fisher Scientific, UK) according to the manufacturer's instructions.

DCP2 enzyme = target: T1, DCP2 enzyme (Schizosaccharomyces pombe, UniProt O13828); assay: Decapping enzyme stability test; assay type: biochemical; settings: for Decapping rate (%) of DCP2 enzyme: 30 pmol RNA, 50 U mRNA decapping enzyme, 37° C., 45 minutes; for decapping rate lower than that of HN3002: difference to HN3002; for decapping rate lower than that of N-7413: difference to N-7413; for decapping rate lower than that of YK-CAP-001: difference to YK-CAP-001; for decapping rate lower than that of YK-CAP-002: difference to YK-CAP-002; for decapping rate lower than that of compound 14: difference to compound 14; for decapping rate lower than that of m6A: difference to m6A
T1 construct: purchased New England Biolabs
T1 sequence (O13828 1-243 limits assumed): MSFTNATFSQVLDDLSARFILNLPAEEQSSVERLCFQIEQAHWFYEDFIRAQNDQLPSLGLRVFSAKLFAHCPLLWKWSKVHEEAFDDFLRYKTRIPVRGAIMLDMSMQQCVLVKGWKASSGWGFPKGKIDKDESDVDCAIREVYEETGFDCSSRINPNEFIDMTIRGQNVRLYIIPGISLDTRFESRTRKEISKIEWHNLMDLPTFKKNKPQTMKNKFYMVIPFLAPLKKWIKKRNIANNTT
T1 sequence (Q9P805 1-127 partner): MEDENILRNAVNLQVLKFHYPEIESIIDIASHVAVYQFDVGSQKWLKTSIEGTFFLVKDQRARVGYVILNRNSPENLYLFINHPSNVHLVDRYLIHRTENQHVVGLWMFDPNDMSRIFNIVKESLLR
T1 sequence (Q10108 155-180 partner limits assumed): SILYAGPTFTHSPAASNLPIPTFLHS
Experimental: 30 pmol of RNAs purified by polyacrylamide gel electrophoresis (PAGE) was subjected to an enzymatic reaction with 50 U of mRNA decapping enzyme (New England Biolabs) and 1×MDE buffer at 37° C. for 45 minutes. The enzymatic reactants were subjected to PAGE and stained with SYBR Green II (Lonza), followed by observation of the post-electrophoresis gel image on a Typhoon FLA 7000 (GE Healthcare) instrument. The electrophoresis band intensity ratio of RNA capping to RNA decapping was counted using ImageQuant (GE Healthcare) software, and the decapping rate of the decapping enzyme was calculated (as shown in Table 6).

BALB/C mice = assay: In vivo imaging of protein expressed by LNP-carrying Fluc-mRNA in mice; settings: for Average radiation intensity: female BALB/C mice; for average radiation intensity, times that of N-7413: ratio to N-7413; for average radiation intensity, times that of YK-CAP-001: ratio to YK-CAP-001; for average radiation intensity, times that of YK-CAP-002: ratio to YK-CAP-002; for average radiation intensity, times that of compound 14: ratio to compound 14; for average radiation intensity, times that of m6A: ratio to m6A
Experimental: The LNP preparation containing […] of Fluc-mRNAs transcribed using the cap analogs YK-CAP-001 to 006 in the present disclosure and the cap analogs N-7413, compound 14, and m6A in the prior art was intramuscularly injected into female BALB/C mice aged 4 to 6 weeks and weighing 17 to 19 g. At specific time points after administration (6 hours, 12 hours, 24 hours, 48 hours, 96 hours, and 168 hours), the mice were intraperitoneally injected with fluorescence imaging substrate. The mice were then allowed to move freely for 5 minutes, followed by detection of the average radiation intensity (corresponding to the amount of protein expression) of the protein expressed by LNP-carrying mRNA in the mice using an IVIS Spectrum small-animal in vivo imaging system.

[2] = 6 h after intramuscular injection of LNP Fluc-mRNA
[3] = 12 h after intramuscular injection of LNP Fluc-mRNA
[4] = 24 h after intramuscular injection of LNP Fluc-mRNA
[5] = 48 h after intramuscular injection of LNP Fluc-mRNA
[6] = 96 h after intramuscular injection of LNP Fluc-mRNA
[7] = 168 h after intramuscular injection of LNP Fluc-mRNA

Row | Compound | Particle size [1] [nm] | PDI [1] | EE [1] [%] | Decapping rate (%) of DCP2 enzyme (DCP2 enzyme) [%] | decapping rate lower than that of HN3002 (DCP2 enzyme) [%] | decapping rate lower than that of N-7413 (DCP2 enzyme) [%] | decapping rate lower than that of YK-CAP-001 (DCP2 enzyme) [%] | decapping rate lower than that of YK-CAP-002 (DCP2 enzyme) [%] | decapping rate lower than that of compound 14 (DCP2 enzyme) [%] | decapping rate lower than that of m6A (DCP2 enzyme) [%] | Average radiation intensity (BALB/C mice; [2]) [p/s/cm^2/sr] | Average radiation intensity (BALB/C mice; [3]) [p/s/cm^2/sr] | Average radiation intensity (BALB/C mice; [4]) [p/s/cm^2/sr] | Average radiation intensity (BALB/C mice; [5]) [p/s/cm^2/sr] | Average radiation intensity (BALB/C mice; [6]) [p/s/cm^2/sr] | Average radiation intensity (BALB/C mice; [7]) [p/s/cm^2/sr] | average radiation intensity, times that of N-7413 (BALB/C mice; at 6 hours) [times] | average radiation intensity, times that of YK-CAP-001 (BALB/C mice; at 6 hours) [times] | average radiation intensity, times that of YK-CAP-002 (BALB/C mice; at 6 hours) [times] | average radiation intensity, times that of compound 14 (BALB/C mice; at 6 hours) [times] | further results
1 | COC1C(OP(=O)([O-])OC[C@H]2O[C@@H](n3cnc4c(=O)[nH]c(N)nc43)C(O)C2O)[C@@H](COP(=O)(O)OP(=O)(O)OP(=O)(O)OC[C@]23O[C@@H]([n+]4cn(C)c5c(=O)[nH]c(N)nc54)C(O[C@H]2CC(F)F)C3O)O[C@H]1n1cnc2c(N)ncnc21 (stereo partly shown) [YK-CAP-004] | 89.39 | 0.065 | 93.7 | 10.3 | 12.9 | 38.3 | 16.0 | 14.3 | 18.5 | 17.2 | 3856100 | 2836750 | 1159325 | 903025 | 114933 | 19785 | 1.4 | 2.2 | 2.6 | 1.5 | average radiation intensity, times that of m6A (BALB/C mice; at 6 hours): 2.1 times; average radiation intensity, times that of N-7413 (BALB/C mice; at 96 hours): 1.7 times; average radiation intensity, times that of YK-CAP-001 (BALB/C mice; at 96 hours): 2.6 times; average radiation intensity, times that of YK-CAP-002 (BALB/C mice; at 96 hours): 5.5 times; average radiation intensity, times that of compound 14 (BALB/C mice; at 96 hours): 2.0 times; average radiation intensity, times that of m6A (BALB/C mice; at 96 hours): 3.4 times
2 | COC1C(OP(=O)([O-])OC[C@H]2O[C@@H](n3cnc4c(=O)[nH]c(N)nc43)C(O)C2O)[C@@H](COP(=O)(O)OP(=O)(O)OP(=O)(O)OC[C@]23O[C@@H]([n+]4cn(C)c5c(=O)[nH]c(N)nc54)C(O[C@H]2CCS(C)(=O)=O)C3O)O[C@H]1n1cnc2c(N)ncnc21 (stereo partly shown) [YK-CAP-005] | 87.01 | 0.064 | 94.5 | 12.8 | 10.4 | 35.8 | 13.5 | 11.8 | 16.0 | 14.7 | 3171000 | 2497200 | 998650 | 834250 | 110595 | 17807 | 1.1 | 1.8 | 2.2 | 1.2 | average radiation intensity, times that of m6A (BALB/C mice; at 6 hours): 1.8 times; average radiation intensity, times that of N-7413 (BALB/C mice; at 96 hours): 1.6 times; average radiation intensity, times that of YK-CAP-001 (BALB/C mice; at 96 hours): 2.5 times; average radiation intensity, times that of YK-CAP-002 (BALB/C mice; at 96 hours): 5.3 times; average radiation intensity, times that of compound 14 (BALB/C mice; at 96 hours): 1.9 times; average radiation intensity, times that of m6A (BALB/C mice; at 96 hours): 3.3 times
